Experimental data from BindingDB's records for doi:10.1021/jm9904102 (Abbott Laboratories, 2000).

Molecular target: not listed separately
Test: Inhibition of calcium ionophore (A-23187)-stimulated LTB4 formation in human neutrophil assay

| IC50 [µM] | Structure (SMILES) |
| --- | --- |
| 0.007 | O=C(O)CSC(CCCc1ccc(Cl)cc1)c1ccc(OCc2ccc3ccccc3n2)cc1 [L-674636] |
| 0.008 | CC(C)(C)Sc1c(CC(C)(C)C(=O)O)n(Cc2ccc(Cl)cc2)c2ccc(OCc3ccc4ccccc4n3)cc12 [MK-591] |
| 1.2 | O=C(O)/C=N/OC(c1ccc(-c2ccc3ccccc3n2)cc1)C1CCCCC1 (configuration not stated) [[Cyclohexyl-(4-quinolin-2-yl-phenyl)-methoxyimino]-acetic acid(0.25H2O)] |
| 0.052 | CCCCC(O/N=C/C(=O)O)c1ccc(OCc2ccc3ccccc3n2)cc1 (configuration not stated) [{1-[4-(Quinolin-2-ylmethoxy)-phenyl]-pentyloxyimino}-acetic acid] |
| 0.01 | CCCCC(CCCC)C(O/N=C/C(=O)O)c1ccc(OCc2ccc3ccccc3n2)cc1 (configuration not stated) [{2-Butyl-1-[4-(quinolin-2-ylmethoxy)-phenyl]-hexyloxyimino}-acetic acid] |
| 0.027 | O=C(O)/C=N/OC(CC1CCCCC1)c1ccc(OCc2ccc3ccccc3n2)cc1 (configuration not stated) [{2-Cyclohexyl-1-[4-(quinolin-2-ylmethoxy)-phenyl]-ethoxyimino}-acetic acid] |
| 0.047 | O=C(O)/C=N/OCC(c1ccc(OCc2ccc3ccccc3n2)cc1)C1CCCCC1 (configuration not stated) [{2-Cyclohexyl-2-[4-(quinolin-2-ylmethoxy)-phenyl]-ethoxyimino}-acetic acid (0.25H2O)] |
| 0.021 | O=C(O)/C=N/OC(c1ccc(OCc2ccc3ccccc3n2)cc1)C1C2CC3CC(C2)CC1C3 (configuration not stated) [{Adamantan-2-yl-[4-(quinolin-2-ylmethoxy)-phenyl]-methoxyimino}-acetic acid] |
| 0.018 | O=C(O)/C=N/OC(c1ccc(OCc2ccc3ccccc3n2)cc1)C1CCCCCC1 (configuration not stated) [{Cycloheptyl-[4-(quinolin-2-ylmethoxy)-phenyl]-methoxyimino}-acetic acid] |
| 0.02 | COc1cc(OCc2ccc3ccccc3n2)ccc1C(O/N=C/C(=O)O)C1CCCCC1 (configuration not stated) [{Cyclohexyl-[2-methoxy-4-(quinolin-2-ylmethoxy)-phenyl]-methoxyimino}-acetic acid] |
| 0.02 | Cc1cc(C(O/N=C/C(=O)O)C2CCCCC2)ccc1OCc1ccc2ccccc2n1 (configuration not stated) [{Cyclohexyl-[3-methyl-4-(quinolin-2-ylmethoxy)-phenyl]-methoxyimino}-acetic acid (0.4H2O)] |
| 0.38 | Cc1nc(COc2ccc(C(O/N=C/C(=O)O)C3CCCCC3)cc2)cs1 (configuration not stated) [{Cyclohexyl-[4-(2-methyl-thiazol-4-ylmethoxy)-phenyl]-methoxyimino}-acetic acid] |
| 0.29 | O=C(O)/C=N/OC(c1ccc(CCc2ccc3ccccc3n2)cc1)C1CCCCC1 (configuration not stated) [{Cyclohexyl-[4-(2-quinolin-2-yl-ethyl)-phenyl]-methoxyimino}-acetic acid (0.25H2O)] |
| 0.091 | O=C(O)/C=N/OC(c1ccc(/C=C/c2ccc3ccccc3n2)cc1)C1CCCCC1 (configuration not stated) [{Cyclohexyl-[4-(2-quinolin-2-yl-vinyl)-phenyl]-methoxyimino}-acetic acid (0.25H2O)] |
| 0.021 | O=C(O)/C=N/OC(c1ccc(OCc2nc(-c3ccccc3)cs2)cc1)C1CCCCC1 (configuration not stated) [{Cyclohexyl-[4-(4-phenyl-thiazol-2-ylmethoxy)-phenyl]-methoxyimino}-acetic acid (1.25H2O)] |
| 0.087 | O=C(O)/C=N/OC(c1ccc(OCc2nc3cc(F)ccc3s2)cc1)C1CCCCC1 (configuration not stated) [{Cyclohexyl-[4-(5-fluoro-benzothiazol-2-ylmethoxy)-phenyl]-methoxyimino}-acetic acid] |
| 0.14 | O=C(O)/C=N/OC(c1ccc(OCc2cc(-c3ccccc3)on2)cc1)C1CCCCC1 (configuration not stated) [{Cyclohexyl-[4-(5-phenyl-isoxazol-3-ylmethoxy)-phenyl]-methoxyimino}-acetic acid] |
| 0.15 | O=C(O)/C=N/OC(c1ccc(OCc2ccccn2)cc1)C1CCCCC1 (configuration not stated) [{Cyclohexyl-[4-(pyridin-2-ylmethoxy)-phenyl]-methoxyimino}-acetic acid] |
| 0.017 | O=C(O)/C=N/OC(c1ccc(OCc2ccc3ccccc3n2)cc1)C1CCCCC1 (configuration not stated) [{Cyclohexyl-[4-(quinolin-2-ylmethoxy)-phenyl]-methoxyimino}-acetic acid] |
| 0.031 | O=C(O)/C(=N/OC(c1ccc(OCc2ccc3ccccc3n2)cc1)C1CCCCC1)c1ccccc1 (configuration not stated) [{Cyclohexyl-[4-(quinolin-2-ylmethoxy)-phenyl]-methoxyimino}-phenyl-acetic acid (0.5H2O)] |
| 0.16 | O=C(O)/C=N/OC(c1ccc(Oc2ccc3ccccc3n2)cc1)C1CCCCC1 (configuration not stated) [{Cyclohexyl-[4-(quinolin-2-yloxy)-phenyl]-methoxyimino}-acetic acid (0.25H2O)] |
| 0.025 | O=C(O)/C=N/OC(c1ccc(OCc2cnc3ccccc3n2)cc1)C1CCCCC1 (configuration not stated) [{Cyclohexyl-[4-(quinoxalin-2-ylmethoxy)-phenyl]-methoxyimino}-acetic acid] |
| 0.027 | O=C(O)/C=N/OC(c1ccc(OCc2nc3cccnc3s2)cc1)C1CCCCC1 (configuration not stated) [{Cyclohexyl-[4-(thiazolo[5,4-b]pyridin-2-ylmethoxy)-phenyl]-methoxyimino}-acetic acid] |
| 0.056 | O=C(O)/C=N/OC(c1ccc2cc(OCc3ccc4ccccc4n3)ccc2c1)C1CCCCC1 (configuration not stated) [{Cyclohexyl-[6-(quinolin-2-ylmethoxy)-naphthalen-2-yl]-methoxyimino}-acetic acid] |
| 0.03 | O=C(O)/C=N/OC(c1ccc(OCc2ccc3ccccc3n2)cc1)C1CCCC1 (configuration not stated) [{Cyclopentyl-[4-(quinolin-2-ylmethoxy)-phenyl]-methoxyimino}-acetic acid] |
| 0.014 | O=C(O)/C=N/OC(c1ccc(OCc2nc3cc(F)ccc3s2)cc1Cl)C1CCCCC1 (configuration not stated) [{[2-Chloro-4-(5-fluoro-benzothiazol-2-ylmethoxy)-phenyl]-cyclohexyl-methoxyimino}-acetic acid] |
| 0.143 | O=C(O)/C=N/OC(c1ccc(OCc2nc3ccccc3o2)cc1)C1CCCCC1 (configuration not stated) [{[4-(Benzooxazol-2-ylmethoxy)-phenyl]-cyclohexyl-methoxyimino}-acetic acid (0.5H2O)] |
| 0.022 | O=C(O)/C=N/OC(c1ccc(OCc2nc3ccccc3s2)cc1Br)C1CCCCC1 (configuration not stated) [{[4-(Benzothiazol-2-ylmethoxy)-2-bromo-phenyl]-cyclohexyl-methoxyimino}-acetic acid] |
| 0.028 | O=C(O)/C=N/OC(c1ccc(OCc2nc3ccccc3s2)cc1Cl)C1CCCCC1 (configuration not stated) [{[4-(Benzothiazol-2-ylmethoxy)-2-chloro-phenyl]-cyclohexyl-methoxyimino}-acetic acid] |
| 0.06 | O=C(O)/C=N/OC(c1ccc(OCc2nc3ccccc3s2)cc1)C1CCCCC1 (configuration not stated) [{[4-(Benzothiazol-2-ylmethoxy)-phenyl]-cyclohexyl-methoxyimino}-acetic acid] |

| Structure (SMILES) | IC50 [µM] |
| --- | --- |
| CC(C)(CC(O/N=C/C(=O)O)c1ccc(OCc2ccc3ccccc3n2)cc1)c1ccccc1 (configuration not stated) [{3-Methyl-3-phenyl-1-[4-(quinolin-2-ylmethoxy)-phenyl]-butoxyimino}-acetic acid] | 0.01 |

Molecular target: T1, Polyunsaturated fatty acid 5-lipoxygenase (Homo sapiens, UniProt P09917)
T1 sequence (P09917 whole entry): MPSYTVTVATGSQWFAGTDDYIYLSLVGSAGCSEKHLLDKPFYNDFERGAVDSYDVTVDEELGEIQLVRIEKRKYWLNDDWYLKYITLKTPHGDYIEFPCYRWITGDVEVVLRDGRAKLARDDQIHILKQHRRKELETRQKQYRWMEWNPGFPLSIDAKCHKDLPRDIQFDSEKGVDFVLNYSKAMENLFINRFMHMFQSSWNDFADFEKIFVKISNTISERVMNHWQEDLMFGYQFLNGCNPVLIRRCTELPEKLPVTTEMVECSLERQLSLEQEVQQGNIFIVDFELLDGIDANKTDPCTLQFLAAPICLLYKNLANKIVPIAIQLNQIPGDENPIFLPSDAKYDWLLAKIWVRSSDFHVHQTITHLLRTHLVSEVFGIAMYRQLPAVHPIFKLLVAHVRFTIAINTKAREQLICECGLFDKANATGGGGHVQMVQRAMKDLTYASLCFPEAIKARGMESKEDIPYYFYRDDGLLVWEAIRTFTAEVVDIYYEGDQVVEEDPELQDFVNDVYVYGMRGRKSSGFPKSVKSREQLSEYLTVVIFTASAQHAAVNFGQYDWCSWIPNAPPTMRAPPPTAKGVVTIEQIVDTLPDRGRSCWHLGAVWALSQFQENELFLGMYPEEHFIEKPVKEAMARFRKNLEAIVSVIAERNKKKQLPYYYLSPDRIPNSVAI
Test: Inhibition of calcium ionophore (A-23187)-stimulated LTB4 formation in human neutrophil assay

| IC50 [µM] | Structure (SMILES) |
| --- | --- |
| 0.015 | C/C(=N\OC(c1ccc(OCc2ccc3ccccc3n2)cc1)C1CCCCC1)C(=O)O (configuration not stated) [S-E-2-{Cyclohexyl-[4-(quinolin-2-ylmethoxy)-phenyl]-methoxyimino}-propionic acid] |
